The record followed here is BindingDB's records for doi:10.1021/jm030354b (Millennium Pharmaceuticals, 2004).

Sequence of Integrin alpha-IIb/beta-3 (P05106 27-788 limits assumed): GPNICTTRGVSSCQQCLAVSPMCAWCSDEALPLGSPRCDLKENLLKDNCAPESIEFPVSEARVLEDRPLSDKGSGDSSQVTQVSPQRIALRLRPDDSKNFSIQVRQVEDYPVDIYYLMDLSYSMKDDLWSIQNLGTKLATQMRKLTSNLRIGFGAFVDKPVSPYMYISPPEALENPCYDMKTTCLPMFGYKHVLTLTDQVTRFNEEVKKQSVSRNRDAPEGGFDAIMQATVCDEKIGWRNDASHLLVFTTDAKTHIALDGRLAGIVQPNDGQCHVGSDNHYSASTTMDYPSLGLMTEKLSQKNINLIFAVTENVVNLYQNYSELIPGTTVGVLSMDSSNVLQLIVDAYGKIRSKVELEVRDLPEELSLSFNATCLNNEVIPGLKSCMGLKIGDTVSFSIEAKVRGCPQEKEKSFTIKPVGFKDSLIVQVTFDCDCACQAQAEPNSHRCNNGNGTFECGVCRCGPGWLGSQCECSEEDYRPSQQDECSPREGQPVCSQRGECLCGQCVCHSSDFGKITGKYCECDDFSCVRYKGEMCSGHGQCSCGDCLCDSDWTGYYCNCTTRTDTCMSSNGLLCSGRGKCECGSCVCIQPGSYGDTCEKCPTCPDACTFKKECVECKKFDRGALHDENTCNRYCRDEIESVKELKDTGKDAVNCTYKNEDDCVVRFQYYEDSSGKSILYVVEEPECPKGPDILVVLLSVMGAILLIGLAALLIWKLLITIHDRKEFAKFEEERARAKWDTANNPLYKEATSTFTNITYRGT
Sequence of Integrin alpha-IIb/beta-3 (P08514 32-887 limits assumed): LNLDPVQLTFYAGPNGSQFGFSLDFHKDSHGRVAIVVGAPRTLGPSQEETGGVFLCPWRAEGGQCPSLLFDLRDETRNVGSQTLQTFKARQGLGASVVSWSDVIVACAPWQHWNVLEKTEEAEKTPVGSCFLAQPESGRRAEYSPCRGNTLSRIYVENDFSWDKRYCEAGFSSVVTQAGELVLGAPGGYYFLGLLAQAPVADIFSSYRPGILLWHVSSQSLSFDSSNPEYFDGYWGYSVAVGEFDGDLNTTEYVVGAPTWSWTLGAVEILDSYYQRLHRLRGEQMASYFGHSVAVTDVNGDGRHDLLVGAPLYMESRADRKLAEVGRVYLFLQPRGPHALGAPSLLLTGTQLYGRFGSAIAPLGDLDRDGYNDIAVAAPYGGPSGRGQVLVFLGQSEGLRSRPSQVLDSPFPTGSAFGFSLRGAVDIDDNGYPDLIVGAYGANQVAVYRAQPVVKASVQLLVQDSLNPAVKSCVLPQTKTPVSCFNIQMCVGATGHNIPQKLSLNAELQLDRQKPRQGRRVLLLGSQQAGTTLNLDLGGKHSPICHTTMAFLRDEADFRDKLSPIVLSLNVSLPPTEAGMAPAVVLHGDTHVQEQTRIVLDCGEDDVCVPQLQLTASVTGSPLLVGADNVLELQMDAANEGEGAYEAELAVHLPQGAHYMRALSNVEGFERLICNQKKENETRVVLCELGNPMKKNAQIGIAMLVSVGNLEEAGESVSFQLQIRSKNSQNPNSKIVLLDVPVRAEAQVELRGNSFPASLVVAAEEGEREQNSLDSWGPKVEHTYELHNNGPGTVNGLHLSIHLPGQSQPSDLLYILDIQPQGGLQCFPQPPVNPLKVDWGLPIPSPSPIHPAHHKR
Sequence of Integrin alpha-IIb/beta-3 (P08514 891-1039 limits assumed): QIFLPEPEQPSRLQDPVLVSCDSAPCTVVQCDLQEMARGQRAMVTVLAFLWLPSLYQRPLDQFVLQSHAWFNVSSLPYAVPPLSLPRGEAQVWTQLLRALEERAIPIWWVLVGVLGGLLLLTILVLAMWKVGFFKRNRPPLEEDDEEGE

The experiment addresses Integrin alpha-IIb/beta-3 (Homo sapiens, UniProt P08514+P05106). In words: Inhibition of platelet aggregation induced by 20 uM adenosine 5-diphosphate (ADP) in citreated human platelet rich plasma (h-PRP).
`CN1C(=O)N(c2ccc(C(=N)N)cc2)CC12CCN(C(=O)NCCC(=O)O)CC2` [3-{[3-(4-Carbamimidoyl-phenyl)-1-methyl-2-oxo-1,3,8-triaza-spiro[4.5]decane-8-carbonyl]-amino}-propionic acid] displayed an IC50 of 212 nM.

Take `Cc1ccc(S(=O)(=O)N[C@@H](CNC(=O)N2CCC3(CC2)C(=O)N(c2ccc(C(=N)N)cc2)C(=O)N3C)C(=O)O)cc1` [(S)-3-{[3-(4-Carbamimidoyl-phenyl)-1-methyl-2,4-dioxo-1,3,8-triaza-spiro[4.5]decane-8-carbonyl]-amino}-2-(toluene-4-sulfonylamino)-propionic acid]: the IC50 was determined as 59 nM.

Compound `CN1C(=O)N(c2ccc(C(=N)N)cc2)C(=O)C12CCN(C(=O)NC(CC(=O)O)c1ccccc1)CC2` (stereo unspecified) [3-{[3-(4-Carbamimidoyl-phenyl)-1-methyl-2,4-dioxo-1,3,8-triaza-spiro[4.5]decane-8-carbonyl]-amino}-3-phenyl-propionic acid] returned an IC50 of 103 nM.

Turning to `CN1C(=O)N(c2ccc(C(=N)N)cc2)CC12CCN(C(=O)CC(CC(=O)O)c1ccccc1)CC2` (stereo unspecified) [5-[3-(4-Carbamimidoyl-phenyl)-1-methyl-2-oxo-1,3,8-triaza-spiro[4.5]dec-8-yl]-5-oxo-3-phenyl-pentanoic acid], the IC50 came to 80 nM.

Compound `N=C(N)c1ccc(N2CC3(CCN(C(=O)CCCCC(=O)O)CC3)CC2=O)cc1` [6-[2-(4-Carbamimidoyl-phenyl)-3-oxo-2,8-diaza-spiro[4.5]dec-8-yl]-6-oxo-hexanoic acid] returned an IC50 of 4100 nM.

For the compound `N=C(N)c1ccc(N2C(=O)NC3(CCN(C(=O)CCCC(=O)O)CC3)C2=O)cc1` [5-[3-(4-Carbamimidoyl-phenyl)-2,4-dioxo-1,3,8-triaza-spiro[4.5]dec-8-yl]-5-oxo-pentanoic acid], the IC50 was found to be 586 nM.

The compound `N=C(N)c1ccc(N2CCC3(CCN(C(=O)CC(CC(=O)O)c4ccccc4)CC3)C2=O)cc1` (stereo unspecified) [5-[2-(4-Carbamimidoyl-phenyl)-1-oxo-2,8-diaza-spiro[4.5]dec-8-yl]-5-oxo-3-phenyl-pentanoic acid] had an IC50 of 149 nM. Compared with the last compound, the IC50 is about 3.9-fold lower.

As for `CC(C)(COC(=O)N1CCC2(CC1)CC(=O)N(c1ccc(C(=N)N)cc1)C2)C(=O)O` [2-(4-Carbamimidoyl-phenyl)-3-oxo-2,8-diaza-spiro[4.5]decane-8-carboxylic acid 2-carboxy-2-methyl-propyl ester], the IC50 was found to be 3600 nM.

In turn, `C[C@H](CC(=O)O)NC(=O)N1CCC2(CC1)CCN(c1ccc(C(=N)N)cc1)C2=O` [(R)-3-{[2-(4-Carbamimidoyl-phenyl)-1-oxo-2,8-diaza-spiro[4.5]decane-8-carbonyl]-amino}-butyric acid] returned an IC50 of 68 nM. This IC50 is about 53-fold lower than that of the compound before.

Regarding `CCCCOC(=O)N[C@@H](CCC(=O)N1CCC2(CC1)CCN(c1ccc(C(=N)N)cc1)C2=O)C(=O)O` [2-Butoxycarbonylamino-5-[2-(4-carbamimidoyl-phenyl)-1-oxo-2,8-diaza-spiro[4.5]dec-8-yl]-5-oxo-pentanoic acid], the IC50 stood at 66 nM.

`CC(CC(=O)O)NC(=O)N1CCC2(CC1)CCN(c1ccc(C(=N)N)cc1)C2=O` (stereo unspecified) [3-{[2-(4-Carbamimidoyl-phenyl)-1-oxo-2,8-diaza-spiro[4.5]decane-8-carbonyl]-amino}-butyric acid] displayed an IC50 of 122 nM. This IC50 is about 1.8-fold higher than that of the compound before.

`Cc1ccc(S(=O)(=O)N[C@@H](CNC(=O)N2CCC3(CC2)CCN(c2ccc(C(=N)N)cc2)C3=O)C(=O)O)cc1` [3-{[2-(4-Carbamimidoyl-phenyl)-1-oxo-2,8-diaza-spiro[4.5]decane-8-carbonyl]-amino}-2-(toluene-4-sulfonylamino)-propionic acid] yielded an IC50 of 66 nM.

Compound `CN1C(=O)N(c2ccc(C(=N)N)cc2)C(=O)C12CCN(C(=O)NCCC(=O)O)CC2` [3-{[3-(4-Carbamimidoyl-phenyl)-1-methyl-2,4-dioxo-1,3,8-triaza-spiro[4.5]decane-8-carbonyl]-amino}-propionic acid] had an IC50 of 222 nM.

The compound `N=C(N)c1ccc(N2CC3(CCN(C(=O)CCCC(=O)O)CC3)NC2=O)cc1` [5-[3-(4-Carbamimidoyl-phenyl)-2-oxo-1,3,8-triaza-spiro[4.5]dec-8-yl]-5-oxo-pentanoic acid] showed an IC50 of 1020 nM.

Take `N=C(N)c1ccc(N2CCC3(CCN(C(=O)CCCCC(=O)O)CC3)C2=O)cc1` [6-[2-(4-Carbamimidoyl-phenyl)-1-oxo-2,8-diaza-spiro[4.5]dec-8-yl]-6-oxo-hexanoic acid]: it took 3400 nM to reach half-maximal inhibition (IC50).

`N=C(N)c1ccc(N2C(=O)NC3(CCN(C(=O)NCCC(=O)O)CC3)C2=O)cc1` [3-{[3-(4-Carbamimidoyl-phenyl)-2,4-dioxo-1,3,8-triaza-spiro[4.5]decane-8-carbonyl]-amino}-propionic acid] displayed an IC50 of 468 nM.

In the case of `CN1C(=O)N(c2ccc(C(=N)N)cc2)CC12CCN(C(=O)CCCC(=O)O)CC2` [5-[3-(4-Carbamimidoyl-phenyl)-1-methyl-2-oxo-1,3,8-triaza-spiro[4.5]dec-8-yl]-5-oxo-pentanoic acid], the IC50 is 674 nM. This IC50 and that of the compound before are within 1.5-fold of each other.

The compound `C[C@H](CC(=O)O)CC(=O)N1CCC2(CC1)CCN(c1ccc(C(=N)N)cc1)C2=O` [(S)-5-[2-(4-Carbamimidoyl-phenyl)-1-oxo-2,8-diaza-spiro[4.5]dec-8-yl]-3-methyl-5-oxo-pentanoic acid] yielded an IC50 of 350 nM.

The compound `CN1C(=O)N(c2ccc(C(=N)N)cc2)C(=O)C12CCN(C(=O)CC(CC(=O)O)c1ccccc1)CC2` (stereo unspecified) [5-[3-(4-Carbamimidoyl-phenyl)-1-methyl-2,4-dioxo-1,3,8-triaza-spiro[4.5]dec-8-yl]-5-oxo-3-phenyl-pentanoic acid] returned a half-maximal inhibitory concentration (IC50) of 120 nM.

The compound `N=C(N)c1ccc(N2CC3(CCN(C(=O)NCCC(=O)O)CC3)NC2=O)cc1` [3-{[3-(4-Carbamimidoyl-phenyl)-2-oxo-1,3,8-triaza-spiro[4.5]decane-8-carbonyl]-amino}-propionic acid] came in with an IC50 of 3770 nM.

`CN1C(=O)N(c2ccc(C(=N)N)cc2)C(=O)C12CCN(C(=O)CCCC(=O)O)CC2` [5-[3-(4-Carbamimidoyl-phenyl)-1-methyl-2,4-dioxo-1,3,8-triaza-spiro[4.5]dec-8-yl]-5-oxo-pentanoic acid]: 700 nM corresponded to half-maximal inhibition (IC50).

In the case of `N=C(N)c1ccc(N2C(=O)CC3(CCN(C(=O)CCCC(=O)O)CC3)C2=O)cc1` [5-[2-(4-Carbamimidoyl-phenyl)-1,3-dioxo-2,8-diaza-spiro[4.5]dec-8-yl]-5-oxo-pentanoic acid], the midpoint of inhibition, the IC50, lay at 730 nM.

For `CCCCOC(=O)N[C@@H](CCC(=O)N1CCC2(CC1)C(=O)N(c1ccc(C(=N)N)cc1)C(=O)N2C)C(=O)O` [2-Butoxycarbonylamino-5-[3-(4-carbamimidoyl-phenyl)-1-methyl-2,4-dioxo-1,3,8-triaza-spiro[4.5]dec-8-yl]-5-oxo-pentanoic acid], 65 nM corresponded to half-maximal inhibition (IC50).

Regarding `CCNC(=N)c1ccc(N2CCC3(CCN(C(=O)CCCC(=O)O)CC3)C2=O)cc1` [5-{2-[4-(N-Ethylcarbamimidoyl)-phenyl]-1-oxo-2,8-diaza-spiro[4.5]dec-8-yl}-5-oxo-pentanoic acid], the midpoint of inhibition, the IC50, lay at 7540 nM. This IC50 lies about 120-fold higher than the previous one.

For `N=C(N)c1ccc(N2CCC3(CCN(C(=O)CCC(=O)O)CC3)C2=O)cc1` [4-[2-(4-Carbamimidoyl-phenyl)-1-oxo-2,8-diaza-spiro[4.5]dec-8-yl]-4-oxo-butyric acid], the IC50 was found to be 733 nM.

The compound `N=C(N)c1ccc(N2CCC3(CCN(C(=O)CC(=O)O)CC3)C2=O)cc1` [3-[2-(4-Carbamimidoyl-phenyl)-1-oxo-2,8-diaza-spiro[4.5]dec-8-yl]-3-oxo-propionic acid] had an IC50 of 12500 nM.

`N=C(N)c1ccc(N2CC3(CCN(C(=O)CCC(=O)O)CC3)CC2=O)cc1` [4-[2-(4-Carbamimidoyl-phenyl)-3-oxo-2,8-diaza-spiro[4.5]dec-8-yl]-4-oxo-butyric acid] registered an IC50 of 5700 nM.

In turn, `N=C(N)c1ccc(N2CC3(CCN(C(=O)CC(CC(=O)O)c4ccccc4)CC3)CC2=O)cc1` (stereo unspecified) [5-[2-(4-Carbamimidoyl-phenyl)-3-oxo-2,8-diaza-spiro[4.5]dec-8-yl]-5-oxo-3-phenyl-pentanoic acid] displayed an IC50 of 100 nM.

`CCCCOC(=O)N[C@@H](CCC(=O)N1CCC2(CC1)CC(=O)N(c1ccc(C(=N)N)cc1)C2=O)C(=O)O` [2-Butoxycarbonylamino-5-[2-(4-carbamimidoyl-phenyl)-1,3-dioxo-2,8-diaza-spiro[4.5]dec-8-yl]-5-oxo-pentanoic acid] gave a half-maximal inhibitory concentration (IC50) of 270 nM.

Compound `N=C(N)c1ccc(N2CC3(CCN(C(=O)NCCC(=O)O)CC3)CC2=O)cc1` [3-{[2-(4-Carbamimidoyl-phenyl)-3-oxo-2,8-diaza-spiro[4.5]decane-8-carbonyl]-amino}-propionic acid] had an IC50 of 171 nM.

`N=C(N)c1ccc(N2CCC3(CCN(CCCCC(=O)O)CC3)C2=O)cc1` [5-[2-(4-Carbamimidoyl-phenyl)-1-oxo-2,8-diaza-spiro[4.5]dec-8-yl]-pentanoic acid] had an IC50 of 5180 nM. This IC50 lies about 30-fold higher than the previous one.

Compound `N=C(N)c1ccc(N2C(=O)CC3(CCN(C(=O)NCCC(=O)O)CC3)C2=O)cc1` [3-{[2-(4-Carbamimidoyl-phenyl)-1,3-dioxo-2,8-diaza-spiro[4.5]decane-8-carbonyl]-amino}-propionic acid] registered an IC50 of 640 nM. Against the preceding compound, the IC50 is about 8.1-fold lower.

For the compound `CN1C(=O)N(c2ccc(C(=N)N)cc2)C(=O)C12CCN(CCCCC(=O)O)CC2` [5-[3-(4-Carbamimidoyl-phenyl)-1-methyl-2,4-dioxo-1,3,8-triaza-spiro[4.5]dec-8-yl]-pentanoic acid], the IC50 came to 7560 nM. Against the preceding compound, the IC50 is about 12-fold higher.

On to `Cc1noc(C)c1S(=O)(=O)N[C@@H](CCC(=O)N1CCC2(CC1)CCN(c1ccc(C(=N)N)cc1)C2=O)C(=O)O` [5-[2-(4-Carbamimidoyl-phenyl)-1-oxo-2,8-diaza-spiro[4.5]dec-8-yl]-2-(3,5-dimethyl-isoxazole-4-sulfonylamino)-5-oxo-pentanoic acid], for which the IC50 is 36 nM.

The compound `Cc1noc(C)c1S(=O)(=O)N[C@@H](CCC(=O)N1CCC2(CC1)C(=O)N(c1ccc(C(=N)N)cc1)C(=O)N2C)C(=O)O` [5-[3-(4-Carbamimidoyl-phenyl)-1-methyl-2,4-dioxo-1,3,8-triaza-spiro[4.5]dec-8-yl]-2-(3,5-dimethyl-isoxazole-4-sulfonylamino)-5-oxo-pentanoic acid] registered an IC50 of 118 nM.

`N=C(N)c1ccc(N2CC3(CCN(C(=O)CC(=O)O)CC3)CC2=O)cc1` [3-[2-(4-Carbamimidoyl-phenyl)-3-oxo-2,8-diaza-spiro[4.5]dec-8-yl]-3-oxo-propionic acid] had a half-maximal inhibitory concentration (IC50) of 7400 nM.

A word on the IC50: it is the concentration at which inhibition is half-maximal. Low values mean inhibition by little substance, high ones a need for much substance.
